Tests used:
[1] = system: isolated working rat heart; test: Glucose oxidation in isolated perfused working rat heart ([U-14C]glucose, 14CO2 production); conditions: for activation at 100 µM: Table 2B, screening concentration 100 μM, isolated working rat heart, read-out: Glucose Oxidation (% above control); for stimulation of glucose oxidation in the heart (in words): intact heart
Procedure: Rat hearts were cannulated for isolated working heart 60 minute aerobic perfusions as described in J Pharmacol Exp Ther. 1993; 264:135-144, the entire disclosure of which is incorporated herein by reference.
Male Sprague-Dawley rats (0.3-0.35 kg) were anesthetized with pentobarbital sodium (60 mg/kg IP) and hearts were quickly excised, the aorta was cannulated and a retrograde perfusion at 37° C. was initiated at a hydrostatic pressure of 60 mm Hg. Hearts were trimmed of excess tissue, and the pulmonary artery and the opening to the left atrium were then cannulated. After 15 min of Langendorff perfusion, hearts were switched to the working mode by clamping the aortic inflow line from the Langendorff reservoir and opening the left atrial inflow line. The perfusate was delivered from an oxygenator into the left atrium at a constant preload pressure of 11 mm Hg. Perfusate was ejected from spontaneously beating hearts into a compliance chamber (containing 1 ml of air) and into the aortic outflow line. The afterload was set at a hydrostatic pressure of 80 mm Hg. All working hearts were perfused with Krebs'-Henseleit solution containing calcium 2.5 mmol/L, glucose 5.5 mmol/L, 3% bovine serum albumin (fatty acid free, initial fractionation by heat shock, Sigma), and with 1.2 mmol/L palmitate. Palmitate was bound to the albumin as described in J Bio Chem. 1992; 267:3825-3831, the entire disclosure of which is incorporated herein by reference.
The perfusate was recirculated, and pH was adjusted to 7.4 by bubbling with a mixture containing 95% O2 and 5% CO2.
Spontaneously beating hearts were used in all perfusions. Heart rate and aortic pressure were measured with a Biopac Systems Inc. blood pressure transducer connected to the aortic outflow line. Cardiac output and aortic flow were measured with Transonic T206 ultrasonic flow probes in the preload and afterload lines, respectively. Coronary flow was calculated as the difference between cardiac output and aortic flow. Cardiac work was calculated as the product of systolic pressure and cardiac output.
Measurement of Glucose Oxidation: Glucose oxidation was measured simultaneously by perfusing hearts with [U-^14C] glucose according to the procedures discussed in Saddik M, et al., J Bio Chem. 1992; 267:3825-3831. The entire disclosure of this reference is incorporated herein by reference. The total myocardial ^14CO2 production was determined at 10-min intervals from the 60-min aerobic period. Glucose oxidation rates were determined by quantitative measurement of ^14CO2 production as described in Barbour RL, et al., Biochemistry. 1984; […]. The entire disclosure of this reference is incorporated herein by reference. ^14CO2 production for the control group were compared with the ^14CO2 production for the group treated with cyclopropanecarboxylic acid, 2-[2-(2-methoxy-ethoxy)-ethoxy]-ethyl ester. Results are shown on FIG. 1 and TABLE 2A.
The procedure of Example A for was followed except that cyclobutanecarboxylic acid, 2-[2-(2-methoxy-ethoxy)-ethoxy]-ethyl ester in 1 μM, 10 μM, 100 μM and 1000 μM amounts was added to the buffer in place of the cyclopropanecarboxylic acid, 2-[2-(2-methoxy-ethoxy)-ethoxy]-ethyl ester. The results are illustrated in FIG. 2 and TABLE 2A.
The procedure of Example A was followed except that cyclopropanecarboxylic acid, 2-isopropoxy-ethyl ester in 1 μM, 10 μM, 100 μM and 1000 μM amounts was added to the buffer in place of the cyclopropanecarboxylic acid, 2-[2-(2-methoxy-ethoxy)-ethoxy]-ethyl ester. The results are illustrated in FIG. 3 and TABLE 2A.
The procedure of Example A was followed except that various cyclobutanecarboxylic acid derivatives, cyclopropanecarboxylic acid derivatives and cyclobutanecarboxylic acid in the amounts of 100 μM or 1000 μM was added to the buffer in place of the cyclopropanecarboxylic acid, 2-[2-(2-methoxy-ethoxy)-ethoxy]-ethyl ester.

[2] = cited from earlier work

Compound	activation at 100 µM [1] [%]	further results
O=C(SCc1ccco1)C1CC1 [Compound 42MM095, Cyclopropanecarbothioic acid S-furan-2-yl methyl ester]	314	
CCOCCOC(=O)C1(c2ccc(OC)cc2)CC1 [Compound 43MM096, 1-(4-methoxy-phenyl)-cyclopropanecarboxylic acid 2-ethoxy-ethyl ester]	93	
COCCOCCOCCOC(=O)C1(c2ccccc2)CC1 [Compound 44MM097, 1-phenyl-cyclopropanecarboxylic acid 2[2-(2-methoxy-ethoxy)-ethoxy]-ethyl ester]	125	
O=C(OCCOC(=O)C1CC1)C1CC1 [Compound 45MM098, Cyclopropanecarboxylic acid 2-cyclopropanecarbonyloxy-ethyl ester]	358	
O=C(OCCOC(=O)C1(c2ccccc2)CC1)C1(c2ccccc2)CC1 [Compound 46MM099, 1-(1-Phenyl-1-cyclopropanecarboxylic acid)-2-(1-phenyl-1-cyclopropanecarbonyloxy)-ethyl ester]	93	
O=C(O)C(Cl)Cl [DCA, dichloroacetate]		biological half-life (in words) [2]: short biological half-life
O=C(O)C1CC1 [MM001, Cyclopropanecarboxylic acid]		stimulation of glucose oxidation in the heart (in words) [1]: stimulator of glucose oxidation
O=C(O)C1CCC1 [MM013, Cyclobutanecarboxylic acid]		stimulation of glucose oxidation in the heart (in words) [1]: stimulate glucose oxidation

— US7524885B2, “Compounds that stimulate glucose utilization and methods of use” (The Governors of the University of Alberta, priority 2002, dated 2009)
